The subject of one assay is Streptococcus mitis. In words: calorimetric measurement of suppression of bacterial growth (S. mitis). As to conditions: single essential oil component at 0.1% in BHI. The class given is cell-based. The protocol:
(§1) Finally, additional calorimetric experiments were performed to measure the capability of different agents of suppressing the growth of bacteria such as Streptococcus mutans and Streptococcus mitis. The different agents 7 were applied as a solution containing a single essential oil component at a concentration of 0.1% in BHI. As figure of merits, the lag phase, defined as the postponement in time of the growth of the bacteria and measured in hours, and the growth rate (increase in number of bacteria/time), measured in J/h, of the Streptococcus populations were determined as follows: […]

The test system of another assay is Streptococcus mutans. In words: calorimetric measurement of suppression of bacterial growth (S. mutans). It counts as cell-based. As to conditions: single essential oil component at 0.1% in BHI. How it is done:
as §1

Here are results for 5 compounds from patent publication US20230201025A1, “PROCESS FOR FABRICATING A DENTAL APPLIANCE AND ACCOMPANYING USE CASES” (Bottmedical AG, priority 2020, published 2023).

The structures appear in SMILES notation. A value given as a limit tells only on which side of the number the result lay.

In the case of `CC12CCC(CC1)C(C)(C)O2` [Eucalyptol], in the assay with Streptococcus mitis, the “growth rate (J/h) of S. mitis” value was determined as 0.14 J/h and the “lag phase (h) of S. mitis growth” value came out at 2 h. Moreover, in the assay on Streptococcus mutans, the “growth rate (J/h) of S. mutans” value came out at 1.3 J/h and the “lag phase (h) of S. mutans growth” value was 5 h.

Regarding `C=C(C)[C@H]1CC=C(C)CC1` [Limonene], in the assay on Streptococcus mitis, the “growth rate (J/h) of S. mitis” value is 0.11 J/h and the “lag phase (h) of S. mitis growth” value was 3 h.

With `O=CC=Cc1ccccc1` [cinnam aldehyde, cinnamaldehyde], in the assay on Streptococcus mitis, the “growth rate (J/h) of S. mitis” value was 0.15 J/h and the “lag phase (h) of S. mitis growth” value worked out at 6.2 h. Besides, in the assay on Streptococcus mutans, the “growth rate (J/h) of S. mutans” value is 0 J/h and the “lag phase (h) of S. mutans growth” value was above 24 h. In the assay with Streptococcus mutans (listed as cinnamaldehyde), the “growth rate (J/h) of S. mutans” value was “without any measurable growth”.

As to `COC(=O)c1ccccc1O` [methyl salicylate], in the assay with Streptococcus mitis, the “growth rate (J/h) of S. mitis” value amounted to 0.4 J/h and the “lag phase (h) of S. mitis growth” value is 23 h. Besides, in the assay on Streptococcus mutans, the “growth rate (J/h) of S. mutans” value was 1.2 J/h and the “lag phase (h) of S. mutans growth” value amounted to 5 h.

With `C/C=C/c1ccc(OC)cc1` [trans-anethole], in the assay on Streptococcus mitis, the “growth rate (J/h) of S. mitis” value is reported as 0.13 J/h and the “lag phase (h) of S. mitis growth” value was 6.4 h. Moreover, in the assay on Streptococcus mutans, the “growth rate (J/h) of S. mutans” value is on record as 0.03 J/h and the “lag phase (h) of S. mutans growth” value is given as above 24 h.
